Data from patent US20220409617A1, “Drug Formulations and Methods of Treatment for Metabolic Disorders” (The Regents of the University of California, priority 2019, published 2022).

Columns and labels:
hepatic mitochondria = assay: Hepatic mitochondrial morphology (NADH/NADPH autofluorescence) after acute treatment; type: in vivo, mouse
Protocol: To determine whether sphingolipid-like compound 893 also protects from ceramide-induced mitochondrial fragmentation in vivo, a cohort of mice with diet-induced obesity was analyzed. Male, C57BL/6J mice were fed a 45% kcal from fat rodent diet (HFD) or a standard chow diet (10% kcal from fat) for 22-26 weeks. Mitochondrial morphology was compared in freshly resected livers from vehicle- or sphingolipid-like compound 893-treated mice using NADH/NADPH autofluorescence and confocal microscopy. When evaluating mitochondrial morphology, light microscopy has two, significant advantages over electron microscopy: 1) the 3D architecture of the mitochondrial network is readily apparent, and 2) quantitative measurements of mitochondrial shape can be made in a large number of cells in an automated and unbiased manner using image analysis software (FIG. 11). […]
MEFs were washed twice with PBS and fixed with 4% paraformaldehyde for 10 min at RT. […] NADH/NADPH autofluorescence was detected with 740 nm excitation and 450±50 nm detectors using a Mai Tai two-photon laser. Fluorescence microscopy was performed on a Zeiss LSM 780 confocal using a 63× oil objective with a […] numerical aperture (NA) or using a Nikon TE2000-S inverted epifluorescence microscope with a 100× oil objective (1.3 NA) and a Photometrics CoolSNAP ES2 monochrome CCD camera. […]

[1] = tested on: protein phosphatase 2A (PP2A); conditions: cited from earlier work

**Q.** What does the source list for `CCCCCCCCc1ccc([C@H]2CCN[C@@H]2CO)cc1.Cl` [compound 893]?
**A.** Hepatic mitochondrial morphology (aspect ratio, roundness), HFD-fed mice (hepatic mitochondria; single oral dose 120 mg/kg at ZT8.5, HFD-fed, treatment-naive mice): increasing their tubularity (increased aspect ratio) and reducing their roundness to match controls fed standard chow; Hepatic mitochondrial morphology, lean SD-fed mice (hepatic mitochondria; single oral dose 120 mg/kg, mice consuming the SD): did not significantly alter hepatic mitochondrial morphology; Effect on PP2A [1]: activate protein phosphatase 2A (PP2A)
